# Results from PMC4657044, “Live detection and purification of cells based on the expression of a histone chaperone, HIRA, using a binding peptide” (Scientific Reports, 2015).
# No end group written: not given here.
# Assays:
# [1] = system: HSC-4 cells; assay: FACS of fixed HSC-4 cells with and without saponin permeabilization; assay type: cell-based, human; settings: fixed (4% PFA) HSC-4 cells, 10 μM FITC-labelled peptide, with or without 0.3% saponin, buffer with 1% FBS, 1 h at room temperature; FACS fluorescence
# Description: (§1) TM2-FITC was used for FACS analyses with and without permeabilization of fixed HSC-4 cells using saponin. […] To check whether it can be used for live sorting, live HSC-4 cells were stained with the peptide and analyzed by FACS. […] The live uptake of TM2-FITC by HSC-4 monolayer cells was visualized under microscope immediately after washing off the staining solution (Fig. 2c).
# (§2) FACS analysis was performed as reported previously. Monolayer cells were trypsinized and fixed using 4% PFA, and peptide labeled with FITC (10 μM) was added to the cells in presence or absence of 0.3% saponin in a buffer containing 1%FBS, and incubated for one hour at room temperature. For live sorting, the cells were resuspended in 75 μl of PBS containing the peptide for one hour. Cells were diluted with 200 μl of PBS and sorted immediately using FACS Aria II.
# [2] = biological target: T1, HIRA (Homo sapiens, UniProt P54198); assay: Immunofluorescence of fixed and permeabilized HSC-4 cells; assay type: cell-based; settings: fixed (4% PFA) and permeabilized (0.3% Triton X-100) HSC-4 cells; overnight at 4 °C; confocal microscopy
# T1 construct: We took oral cancer cell line HSC-4, which expresses HIRA; endogenous in cells; host or cells: HSC-4
# T1 sequence (P54198 whole entry): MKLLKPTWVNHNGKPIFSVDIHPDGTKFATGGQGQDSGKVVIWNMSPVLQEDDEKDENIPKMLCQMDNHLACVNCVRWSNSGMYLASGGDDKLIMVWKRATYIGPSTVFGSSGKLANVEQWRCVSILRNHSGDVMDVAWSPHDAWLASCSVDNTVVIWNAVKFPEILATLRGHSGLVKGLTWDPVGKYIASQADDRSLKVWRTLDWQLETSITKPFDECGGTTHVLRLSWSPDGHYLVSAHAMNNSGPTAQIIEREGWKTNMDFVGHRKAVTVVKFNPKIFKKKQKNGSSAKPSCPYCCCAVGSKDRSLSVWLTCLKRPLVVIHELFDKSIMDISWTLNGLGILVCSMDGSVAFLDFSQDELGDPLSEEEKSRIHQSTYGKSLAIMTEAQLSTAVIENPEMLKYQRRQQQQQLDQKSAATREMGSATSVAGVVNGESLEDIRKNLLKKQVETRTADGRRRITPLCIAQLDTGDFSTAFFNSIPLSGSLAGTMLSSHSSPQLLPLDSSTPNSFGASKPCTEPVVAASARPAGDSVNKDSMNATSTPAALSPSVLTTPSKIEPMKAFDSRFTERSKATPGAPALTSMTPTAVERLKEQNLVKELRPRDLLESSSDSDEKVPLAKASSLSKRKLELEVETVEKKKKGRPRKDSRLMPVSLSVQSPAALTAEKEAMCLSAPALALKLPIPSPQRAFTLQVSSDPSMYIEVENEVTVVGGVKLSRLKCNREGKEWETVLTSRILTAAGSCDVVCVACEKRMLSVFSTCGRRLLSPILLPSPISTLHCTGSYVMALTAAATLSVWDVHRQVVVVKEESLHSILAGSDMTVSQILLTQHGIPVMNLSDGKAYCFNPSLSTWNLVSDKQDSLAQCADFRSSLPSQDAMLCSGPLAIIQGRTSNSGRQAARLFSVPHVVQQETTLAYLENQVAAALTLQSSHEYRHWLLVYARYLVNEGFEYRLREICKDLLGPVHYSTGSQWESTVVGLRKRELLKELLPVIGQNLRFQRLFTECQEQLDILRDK
# Description: (§3) One of the problems that could emerge in a peptide-based detection is its specificity. To confirm whether the peptide detects correct molecule, we performed a western blot using biotin-tagged peptide, a novel approach for showing specificity. TM2 was tagged with biotin and purified by size exclusion chromatography, and was used instead of primary antibody in western blot. The blot was developed with streptavidin-HRP and ECL to get a single band at 110 kDa, as observed in antibody-based detection (Fig. 1b). The peptide was tagged to FITC and was used for immunofluorescence in comparison with HIRA antibody. The staining pattern in fixed and permeabilized oral cancer cell line HSC-4 was similar in both TM2-FITC and HIRA antibody (Fig. 1c), confirming the specificity. To rule out nonspecific binding of peptide we selected HIRA-knock out cells. So, we analyzed the specificity using mouse W9.5 (wild type) and Hira^−/− W9.5 ES cells, reported earlier. Since we designed peptides using human sequence, and the cell line is of mouse origin we compared the sequence similarity of binding region of both HIRA and H2B across the two species. […] So we anticipated that the peptide will recognize mouse HIRA as well.
# (§4) Monolayer cells seeded in micro slide chamber were fixed using 4% paraformadehyde (PFA), permeabilized with 0.3% Triton X-100/PBS (PBST) and blocked with 2% serum as described previously. […]
# [3] = system: wild type and Hira-/- ES cells; assay: Live uptake by ES cells under the confocal microscope; assay type: cell-based, mouse; settings: live wild type and Hira-/- ES cells grown in confocal dishes, TM2-FITC; fluorescence microscopy
# Description: as §1
# (a) The FACS profile of fixed HSC-4 cells stained with TM2-FITC. (b) Live cells were stained with the TM2-FITC as described under methods and analyzed in FACS Aria II. (c) HSC-4 cells were grown in confocal dishes and incubated with TM2-FITC diluted in PBS for 1 h. Prior to imaging the cells were briefly washed and imaged (d) ES cells were grown in confocal dishes and stained using TM2-FITC. Hoechst 33342 dye was used to visualize the nucleus. The scale bar represents 10 μm.
# [4] = system: HSC-4 cells and Hira-/- ES cells; assay: FACS of live HSC-4 / Hira-/- ES cell mixture dual stained with TM2-FITC and CD44-PE; assay type: cell-based
# Description: (§5) Since TM2-FITC binds to its target in live cells without any permeabilizing agents, we sought the possibility of its use in live sorting. We tried to separate HIRA expressing cells from HIRA deficient cells using FACS. We took oral cancer cell line HSC-4, which expresses HIRA, and mixed with Hira^−/− ES cells in 2.5:1 ratio. […] These cells were sorted out as positive and negative populations with gates P2 and P3 and were allowed to grow for 5 days in 8-well chamber slide. The DIC images confirm that the positive population was HSC-4 keratinocytes and the negative population was ES cells (Fig. 3b). Again wild type ES cells and Hira^−/− ES cells were mixed in 1:1 ratio and sorted as mentioned before. […] These cells grown in slide chambers were stained with antibodies for HIRA and an epithelial marker, CD44. […] The cross contamination in P3 population for the mixture of null and wild type ES cells was <4%. Since 5 days of growth in ES culture medium might give a selection advantage for ES cells over the contaminating keratinocytes, another FACS was performed to check the false positivity and negativity. HSC-4 cells and Hira^−/− ES cells were stained alone or in mixture with the TM2-FITC and CD44-PE and analyzed by FACS. […] The false positivity that we observed in P4 population could be overcome by a stringent gating as we have done in Fig 3. To further ascertain the false positivity in sorting based on TM2-FITC, the mixture of two cell types were separated for HIRA a positivity as shown in Fig. 4d. The positive population was analyzed for possible cross contamination for ES cells as shown by CD44 negativity. […] Comparing the cost of peptide synthesis with antibody development, this method is more cost effective than conventional antibodies. In future, the strategy can be improved by modifications that increases the retention time of the peptide, to ensure more purity. We argue that this approach will have immense use in cell biology, developmental biology and clinical applications.
# Figure 4 Specificity of TM2-FITC live sorting. (a) The FACS profiles of live HSC-4 cells and ES cells alone or in a mixture stained with TM2-FITC and CD44-PE. The two populations in P2 and P4 gate were selected for CD44 positivity. (b) Sorted cells were further analyzed for HIRA positivity (c) The dual stained cells were separated for both FITC and PE. The positivity of different populations is marked. (d) The mixture of two cell types were separated for HIRA positivity and the P2 population was further analyzed for CD44 positivity.
# (§6) FACS analysis was performed as reported previously. […]
# [5] = biological target: T2, HIRA (Mus musculus, UniProt Q61666); assay: Immunofluorescence of fixed and permeabilized wild type and Hira-/- W9.5 ES cells; assay type: cell-based; settings: fixed and permeabilized mouse W9.5 wild type versus Hira-/- ES cells; confocal microscopy
# T2 construct: endogenous in cells; host or cells: mouse W9.5 ES cells (wild type)
# T2 sequence (Q61666 whole entry): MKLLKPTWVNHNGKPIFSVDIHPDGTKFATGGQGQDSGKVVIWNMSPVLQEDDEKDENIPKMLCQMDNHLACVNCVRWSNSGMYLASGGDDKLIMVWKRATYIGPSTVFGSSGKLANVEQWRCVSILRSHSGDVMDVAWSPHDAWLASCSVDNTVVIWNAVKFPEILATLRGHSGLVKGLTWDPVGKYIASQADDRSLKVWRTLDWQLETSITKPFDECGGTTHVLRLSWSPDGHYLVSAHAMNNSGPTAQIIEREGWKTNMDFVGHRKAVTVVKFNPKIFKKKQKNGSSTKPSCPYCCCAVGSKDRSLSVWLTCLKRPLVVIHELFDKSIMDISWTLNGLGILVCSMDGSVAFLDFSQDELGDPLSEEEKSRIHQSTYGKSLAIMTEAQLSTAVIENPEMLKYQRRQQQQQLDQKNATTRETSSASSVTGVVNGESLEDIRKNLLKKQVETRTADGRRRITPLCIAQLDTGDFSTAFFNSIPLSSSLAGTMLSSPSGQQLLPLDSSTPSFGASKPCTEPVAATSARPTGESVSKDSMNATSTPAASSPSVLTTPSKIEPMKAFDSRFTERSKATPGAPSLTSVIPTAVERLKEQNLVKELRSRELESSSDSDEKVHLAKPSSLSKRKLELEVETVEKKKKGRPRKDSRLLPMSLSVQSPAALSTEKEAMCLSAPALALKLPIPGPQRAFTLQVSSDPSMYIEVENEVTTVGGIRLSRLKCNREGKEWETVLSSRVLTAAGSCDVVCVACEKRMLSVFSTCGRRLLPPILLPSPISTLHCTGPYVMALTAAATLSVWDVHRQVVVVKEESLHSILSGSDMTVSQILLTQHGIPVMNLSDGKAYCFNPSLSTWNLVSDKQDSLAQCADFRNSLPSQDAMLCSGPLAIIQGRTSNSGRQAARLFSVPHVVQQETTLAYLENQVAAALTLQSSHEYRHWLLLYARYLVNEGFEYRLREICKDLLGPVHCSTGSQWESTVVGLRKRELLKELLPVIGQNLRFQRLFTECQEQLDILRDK
# Description: as §3, §4
# [6] = system: HSC-4 cells and Hira-/- ES cells; assay: Live sorting of a mixture of HSC-4 cells and Hira-/- ES cells; assay type: cell-based
# Description: Since TM2-FITC binds to its target in live cells without any permeabilizing agents, we sought the possibility of its use in live sorting. We tried to separate HIRA expressing cells from HIRA deficient cells using FACS. We took oral cancer cell line HSC-4, which expresses HIRA, and mixed with Hira^−/− ES cells in 2.5:1 ratio. […] These cells were sorted out as positive and negative populations with gates P2 and P3 and were allowed to grow for 5 days in 8-well chamber slide. The DIC images confirm that the positive population was HSC-4 keratinocytes and the negative population was ES cells (Fig. 3b). Again wild type ES cells and Hira^−/− ES cells were mixed in 1:1 ratio and sorted as mentioned before. […] These cells grown in slide chambers were stained with antibodies for HIRA and an epithelial marker, CD44. […] The cross contamination in P3 population for the mixture of null and wild type ES cells was <4%. Since 5 days of growth in ES culture medium might give a selection advantage for ES cells over the contaminating keratinocytes, another FACS was performed to check the false positivity and negativity. HSC-4 cells and Hira^−/− ES cells were stained alone or in mixture with the TM2-FITC and CD44-PE and analyzed by FACS. […] The positive population was analyzed for possible cross contamination for ES cells as shown by CD44 negativity. […]
# [7] = system: wild type ES cells and Hira-/- ES cells; assay: Live sorting of a mixture of wild type and Hira-/- ES cells; assay type: cell-based, mouse
# Description: as §5, §6
# [8] = system: HSC-4 cells; assay: FACS of live HSC-4 cells stained with the peptide; assay type: cell-based, human
# Description: as §1, §2
# [9] = mixture of live HSC-4 and Hira-/- ES cells, TM2-FITC and CD44-PE, Fig. 4b
Substance,cell permeability / internalization [1],staining pattern compared with HIRA antibody [2],live uptake pattern in ES cells [3],"false positive ratio in dual staining ([4]; dual stained cells separated for both FITC and PE, Fig. 4c) [%]","HIRA positivity of CD44+ population (P2) [4, 9] [%]","false HIRA positivity of Hira-/- ES cells (CD44 negative, P4) [4, 9] [%]","false positive ratio (CD44 negative cells in the HIRA positive population) ([4]; mixture separated for HIRA positivity, P2 population analysed for CD44, Fig. 4d) [%]",staining of HIRA-/- ES cells (specificity) [5],"HIRA positive cells observed (gate P2) ([6]; live HSC-4 and Hira-/- ES cells mixed 2.5:1 (2.5x10^5 / 1x10^5), expected 71.4%, FACS) [%]","contamination of sorted P3 (negative) population by CD44+HIRA+ cells ([6]; sorted cells grown 5 days in 8-well chamber slide, stained with HIRA and CD44 antibodies) [%]","viability of sorted ES cells ([7]; cells sorted live with TM2-FITC, grown 5 days in 8-well chamber slide, DIC images)","observed ratio of positivity (gate P2) ([7]; live wild type ES and Hira-/- ES cells mixed 1:1 (1x10^5 / 1x10^5), expected 50%, FACS) [%]","cross contamination in sorted P3 (negative) population ([7]; mixture of null and wild type ES cells, sorted cells grown 5 days, stained with HIRA antibody) [%]","signal after washing with peptide free solution ([8]; live HSC-4 cells stained with the peptide, FACS)","cells positive for HIRA ([8]; live HSC-4 cells, no permeabilization, peptide in 75 μl PBS for 1 h, diluted with 200 μl PBS, FACS Aria II) [%]"
PKKGSKKAVTKAQKKDGA-NH2 [TM2],cell permeable,,,,,,,,,,,,,,
"TM2-FITC: TM2 peptide tagged to FITC, used for immunofluorescence, FACS and live sorting (PKKGSKKAVTKAQKKDGA-NH2; also: FITC, site not given here)",internalized without permeabilization,similar,limited to the wild type ES cells,0.6,82,2.7,0.9,absence of staining,65.7,< 1,viable and formed colonies in 5 days,49.6,< 4,loss of the signal,85
